Measured values taken from patent publication US20050124591A1, “Use of vitamin Ds to treat kidney disease” (priority 2003, published 2005).

How the values were obtained:
[1] = system: renin mRNA expression; experiment: Northern blot analysis of renin mRNA expression in As4.1-hVDR cells; format: cell-based
Excerpt: (§1) Using an in vitro cell culture system, the activity of paricalcitol to suppress renin gene expression was examined using previously published techniques (1,25-Dihydroxyvitamin D3 is a negative endocrine regulator of the renin-angiotensin system, J. Clin. Invest., July 2002). […] This inhibitory effect is confirmed by renin promoter-luciferase reporter assays, which examine the activity of paricalcitol to suppress renin gene transcription.

[2] = system: renin gene promoter; experiment: renin promoter-luciferase reporter assay; format: cell-based; conditions: FIG. 2
Excerpt: as §1

[3] = system: PAI-1; experiment: Western blot of PAI-1 in primary culture of human coronary artery smooth muscle cells; format: cell-based; conditions: 24 hr at 37° C.
[4] = system: 24(OH)ase; experiment: effect of drugs on the expression of 24(OH)ase; format: cell-based; conditions: compared with calcitriol
Procedure: Two observations may be noted in these studies: (1) 100% inhibition of growth was never achieved even at 1 μM of any of the test compound. Confocal microscopy studies confirm that, although these drugs are potent in inducing the translocation of VDR from cytoplasm to nucleus, not all cells respond to VDRAs even after 2 h of exposure, which may explain the <100% inhibition.

[5] = system: CKD Stage 3 and 4 patients; experiment: dipstick proteinuria in three randomized, double-blind, placebo-controlled studies in CKD Stage 3 and 4 patients with SHPT; format: in vivo, human
Procedure: Paricalcitol capsule, a synthetic 3rd generation vitamin D analog, and selective vitamin receptor activator (SVDRA) was evaluated in three randomized, double-blind, placebo-controlled, multicenter studies in CKD Stage 3 and 4 patients with SHPT. Two studies dosed three times a week(TIW), no more often than every other day, and 1 study was conducted with once a day dosing regimen (QD). Data from these three studies were combined and analyzed for the following safety parameters: • Calcium and phosphorus metabolism, kidney function parameters and adverse event profile • Changes in dipstick proteinuria Method: • Randomized, double-blind, placebo controlled, multicenter studies with a Pre-treatment/Washout Phase of 1-4 weeks and a Treatment Phase of 24 weeks • Patients were randomized 1:1 to paricalcitol or placebo • Major entry criteria: • Age≧18 years • CKD patients with eGFR (MDRD formula) 15-60 mL/min/1.73 m^2 • Average of the last 2 iPTH values≧150 pg/mL, all values≧120 pg/mL (iPTH measured by Nichols first generation intact PTH assay) • 2 consecutive serum calcium values between 8.0-10.0 mg/dL, and 2 consecutive serum phosphorus values≦5.2 mg/dL • Spot urinary calcium-to-creatinine ratio<0.2 • Not taking maintenance calcitonin, bisphosphonates or drugs that may affect calcium or bone metabolism. • Not taking glucocorticoids for >14 days within the last 6 months. Concurrent Phosphate Binder Usage
Initial Dose: 2 or 4 mcg for TIW regimen and 1 or 2 mcg for QD regimen
Dose Increment: 2 mcg for TIW regimen and 1 mcg for QD regimen
Dose increases every 4 weeks, dose decreases every 2 weeks or sooner
Changes in proteinuria, measured by automated semiquantitative dipstick testing, were evaluated in 195 CKD Stage 3 and 4 patients. Among them, 43.6% (41/94) of paricalcitol patients and 48.5% (49/101) of placebo patients were diabetic.

[6] = system: renin gene expression; conditions: in vitro and in vivo studies, recently found; cited from earlier work

suppression of the activity of the renin gene promoter compared with calcitriol [2] | patients who experienced an increase in proteinuria, baseline to final visit ([5]; patients who could have an increase in proteinuria from baseline (18/76), placebo 29% (23/77), p=0.466) [%] | Compound | renin mRNA expression ([1]; FIG. 1) | renin-inhibiting activity compared with calcitriol ([1]; FIGS. 1A and B) | PAI-1 level [3] | potency in reducing the PAI-1 level [3] | potency on stimulating the expression of 24(OH)ase [4] | patients who had a decrease in proteinuria ([5]; patients on ACEI/ARB therapy with proteinuria at baseline (22/42), placebo 27% (11/41), p=0.025) [%] | patients who experienced a reduction in proteinuria, baseline to final visit ([5]; patients who had proteinuria at baseline (29/57), placebo 25% (15/61), p=0.004, 24 weeks treatment) [%] | renin gene expression [6]
at least as potent as calcitriol | 24 | C[C@H](/C=C/[C@H](C)C(C)(C)O)[C@H]1CC[C@H]2/C(=C/C=C3C[C@@H](O)C[C@H](O)C3)CCC[C@]12C [paricalcitol] | dose-dependently inhibits renin mRNA expression | a bit more potent than calcitriol | able to decrease PAI-1 level | equally potent | less potent than calcitriol | 52 | 51 | 
 |  | C=C1/C(=C\C=C2/CCC[C@]3(C)[C@@H]([C@H](C)CCCC(C)(C)O)CC[C@@H]23)C[C@@H](O)C[C@@H]1O [calcitriol] |  |  |  | equally potent |  |  |  | able to inhibit renin gene expression
